Source: patent publication US20140128431A1, “PHARMACEUTICAL COMPOSITION WITH IMPROVED BIOAVAILABILITY, SAFETY AND TOLERABILITY” (priority 2012, published 2014)

What was measured:
[1] = Caco-2 assay (permeability); assay type: in vitro ADME; details: human
Description: (§1) The compound is moderately permeable as determined with the Caco-2 assay value of 4.5×10-6 cm/s. Targeted high doses/frequency of dosing for this series of compounds, led to the categorization of Compound A as BCS class IV compound (low solubility/low permeability).

[2] = Aqueous solubility of crystalline Compound A at physiological pHs; assay type: physicochemical; details: aqueous media at physiological pHs (pH 1.5-8.0), aqueous buffer, crystalline form
Description: as §1

SMILES: COc1ccc(-c2cc(C(C)(C)C)c(OC)c3cc(-c4ccc(NS(C)(=O)=O)cc4)cnc23)c(=O)[nH]1 [Compound A, N-{4-[6-tert-Butyl-5-methoxy-8-(6-methoxy-2-oxo-1,2-dihydro-pyridin-3-yl)-quinolin-3-yl]-phenyl}-methanesulfonamide]
- Papp [1]: 4.5 ×10⁻⁶ cm/s
- solubility [2]: < 1 µg/mL
